The text below walks through data of ChEMBL document CHEMBL4219262, “Design, synthesis and evaluation of benzoheterocycle analogues as potent antifungal agents targeting CYP51” (Bioorg Med Chem, 2018).

SMILES strings stand for the structures. Values after ≈ are worked out from the molar mass of the structure shown. A value given as a limit tells only on which side of the number the result lay.

Data set [1] deals with Candida albicans. The data set can be described thus: Antifungal activity against Candida albicans ATCC SC5314 after 24 hrs by serial dilution method. The class given is functional. The note with it: SC5314, 24 h.
Data set [2] deals with Candida albicans. The data set can be described thus: Antifungal activity against Candida albicans CPCC 400523 after 24 hrs by serial dilution method. The note with it: CPCC 400523, 24 h. The class given is functional.
The test system of data set [3] is Cryptococcus neoformans. The data set can be described thus: Antifungal activity against Cryptococcus neoformans cgmcc 2.3161 after 72 hrs by serial dilution method. The class given is functional. The following applies: cgmcc 2.3161, 72 h.
Data set [4] deals with Candida tropicalis. The data set can be described thus: Antifungal activity against Candida tropicalis cgmcc 2.3739 after 24 hrs by serial dilution method. It counts as functional. The note with it: cgmcc 2.3739, 24 h.
For data set [5], the system named is Aspergillus fumigatus. The data set can be described thus: Antifungal activity against Aspergillus fumigatus cgmcc 3.7795 after 7 days by serial dilution method. The class given is functional. The following applies: cgmcc 3.7795, 168 h.
In data set [6] the test system is Candida albicans. The data set can be described thus: Antifungal activity against fluconazole-resistant Candida albicans strain 103 after 24 hrs by serial dilution method. It counts as functional. The note with it: Candida albicans, 103, 24 h.
For data set [7], the system named is Candida albicans. In words: Antifungal activity against fluconazole-resistant Candida albicans strain 100 after 24 hrs by serial dilution method. The note with it: Candida albicans, 100, 24 h. The class given is functional.
Data set [8] in a line: Stability in human plasma assessed as parent compound remaining at 2 uM after 60 mins by LC-MS/MS analysis. It counts as ADME, cell-free. The following applies: read-out: Stability.
A short description of data set [9]: Stability in human plasma assessed as parent compound remaining at 2 uM after 120 mins by LC-MS/MS analysis. The class given is ADME, cell-free. The note with it: read-out: Stability.

Turning to `CC(C)OC(=O)[C@H](Cn1ccnc1)NC(=O)c1cc2ccc(F)cc2[nH]1`, the MIC in data set [1] was 32 µg/mL (≈ 89.3 µM); in data set [2], 32 µg/mL (≈ 89.3 µM); in data set [3], 8 µg/mL (≈ 22.3 µM); in data set [4], 0.5 µg/mL (≈ 1.4 µM); in data set [5], 64 µg/mL (≈ 179 µM).

As to `CC(C)OC(=O)[C@H](Cn1ccnc1)NC(=O)c1ccc2ncoc2c1`, the MIC in [1] was found to be 64 µg/mL (≈ 187 µM); in data set [2], 64 µg/mL (≈ 187 µM); in [3], 64 µg/mL (≈ 187 µM); in [4], 32 µg/mL (≈ 93.5 µM); in data set [5] it was 64 µg/mL (≈ 187 µM).

For `CC(C)OC(=O)[C@H](Cn1ccnc1)NC(=O)c1cnc2ccccc2c1`, the MIC in data set [1] turned out to be 64 µg/mL (≈ 182 µM); in [2], 64 µg/mL (≈ 182 µM); in [3], 64 µg/mL (≈ 182 µM); in [4], 32 µg/mL (≈ 90.8 µM); in data set [5], 64 µg/mL (≈ 182 µM).

Consider `CC(C)OC(=O)[C@H](Cn1ccnc1)NC(=O)c1noc2c1CCCc1ccccc1-2`, for which the MIC in data set [1] is 16 µg/mL (≈ 39.2 µM); in data set [2], 2 µg/mL (≈ 4.9 µM); in data set [3], 64 µg/mL (≈ 157 µM); in data set [4], 1 µg/mL (≈ 2.45 µM); in data set [5], 64 µg/mL (≈ 157 µM).

On to `Cc1nc2ccc(C(=O)N[C@@H](Cn3ccnc3)C(=O)OC(C)C)cc2o1`, for which the MIC in data set [1], in [2], in data set [3], in [4] and in data set [5] was 64 µg/mL (≈ 180 µM) in each case.

For the compound `CC(C)OC(=O)[C@H](Cn1ccnc1)NC(=O)c1cc2ccccc2o1`, the minimal inhibitory concentration (MIC) in data set [1] worked out at 16 µg/mL (≈ 46.9 µM); in data set [2], 32 µg/mL (≈ 93.7 µM); in data set [3], 4 µg/mL (≈ 11.7 µM); in data set [4] it was 0.5 µg/mL (≈ 1.46 µM); in [5], 32 µg/mL (≈ 93.7 µM).

Consider `CC(C)OC(=O)[C@H](Cn1ccnc1)NC(=O)c1nc2ccccc2[nH]1`, for which the MIC in data set [1], in [2], in data set [3], in [4] and in data set [5] was 64 µg/mL (≈ 187 µM) throughout.

Consider `CC(C)OC(=O)[C@H](Cn1ccnc1)NC(=O)c1cc2ccccc2n1C`, for which the MIC stood at 8 µg/mL (≈ 22.6 µM) in data set [1]; 8 µg/mL (≈ 22.6 µM) in [2]; 64 µg/mL (≈ 181 µM) in data set [3]; 0.5 µg/mL (≈ 1.41 µM) in data set [4]; 64 µg/mL (≈ 181 µM) in [5].

Turning to `CC(C)COC(=O)[C@H](Cn1ccnc1)NC(=O)c1cc2ccccc2s1`, the MIC is 0.5 µg/mL (≈ 1.35 µM) in data set [1]; 1 µg/mL (≈ 2.69 µM) in data set [2]; 1 µg/mL (≈ 2.69 µM) in data set [3]; 0.25 µg/mL (≈ 0.673 µM) in data set [4]; 8 µg/mL (≈ 21.5 µM) in [5].

As for `CC(C)OC(=O)[C@H](Cn1ccnc1)NC(=O)c1ccc2c(c1)OCO2`, the minimum inhibitory concentration (MIC) in data set [1] was 64 µg/mL (≈ 185 µM); in [2], 64 µg/mL (≈ 185 µM); in data set [3], 64 µg/mL (≈ 185 µM); in data set [4], 32 µg/mL (≈ 92.7 µM); in data set [5], 64 µg/mL (≈ 185 µM).

For the compound `COc1ccc2c(c1)CCc1c(C(=O)N[C@@H](Cn3ccnc3)C(=O)OC(C)C)noc1-2`, the MIC in data set [1] stood at 0.25 µg/mL (≈ 0.589 µM); in [2], 4 µg/mL (≈ 9.42 µM); in [3], 64 µg/mL (≈ 151 µM); in data set [4], 8 µg/mL (≈ 18.8 µM); in data set [5] it was 64 µg/mL (≈ 151 µM).

As to `CC(C)OC(=O)[C@H](Cn1ccnc1)NC(=O)c1cnc2ccccc2n1`, the minimum inhibitory concentration (MIC) was 64 µg/mL (≈ 181 µM) in data set [1]; 64 µg/mL (≈ 181 µM) in data set [2]; 64 µg/mL (≈ 181 µM) in [3]; 16 µg/mL (≈ 45.3 µM) in data set [4]; 64 µg/mL (≈ 181 µM) in [5].

Regarding `CC(C)COC(=O)[C@H](Cn1ccnc1)NC(=O)c1ccc2c(c1)OCO2`, the minimal inhibitory concentration (MIC) was found to be 64 µg/mL (≈ 178 µM) in data set [1]; 64 µg/mL (≈ 178 µM) in data set [2]; 64 µg/mL (≈ 178 µM) in [3]; 16 µg/mL (≈ 44.5 µM) in data set [4]; 64 µg/mL (≈ 178 µM) in [5].

With `CC(C)COC(=O)[C@H](Cn1ccnc1)NC(=O)c1cc2ccccc2o1`, the MIC in [1] is 8 µg/mL (≈ 22.5 µM); in [2], 8 µg/mL (≈ 22.5 µM); in data set [3], 4 µg/mL (≈ 11.3 µM); in data set [4] it was 0.25 µg/mL (≈ 0.703 µM); in data set [5] it was 32 µg/mL (≈ 90 µM).

`CC(C)OC(=O)[C@H](Cn1ccnc1)NC(=O)c1nc2ccc(Br)cc2s1`: the minimal inhibitory concentration (MIC) in data set [1] is 0.125 µg/mL (≈ 0.286 µM); in data set [2], 0.5 µg/mL (≈ 1.14 µM); in [3], 2 µg/mL (≈ 4.57 µM); in data set [4], 1 µg/mL (≈ 2.29 µM); in data set [5] it was over 64 µg/mL.

Turning to `CC(C)COC(=O)[C@H](Cn1ccnc1)NC(=O)c1cnc2ccccc2c1`, the minimal inhibitory concentration (MIC) in [1] came out at 64 µg/mL (≈ 175 µM); in [2], 64 µg/mL (≈ 175 µM); in data set [3] it was 64 µg/mL (≈ 175 µM); in [4], 32 µg/mL (≈ 87.3 µM); in data set [5], 64 µg/mL (≈ 175 µM).

As for `CC(C)COC(=O)[C@H](Cn1ccnc1)NC(=O)c1noc2c1ccc1ccccc12`, the MIC in data set [6] is 2 µg/mL (≈ 4.92 µM); in data set [7], 2 µg/mL (≈ 4.92 µM); in data set [1] it was 0.125 µg/mL (≈ 0.308 µM); in data set [2], 0.25 µg/mL (≈ 0.615 µM); in data set [3], 0.125 µg/mL (≈ 0.308 µM); in data set [4] it was 0.125 µg/mL (≈ 0.308 µM). The compound also registered a minimal inhibitory concentration (MIC) in data set [5] of 16 µg/mL (≈ 39.4 µM).

With `COc1ccc2c(c1)-c1onc(C(=O)N[C@@H](Cn3ccnc3)C(=O)OC(C)C)c1CC2`, the minimum inhibitory concentration (MIC) in data set [1] worked out at 0.25 µg/mL (≈ 0.589 µM); in [2], 16 µg/mL (≈ 37.7 µM); in data set [3], 64 µg/mL (≈ 151 µM); in [4], 2 µg/mL (≈ 4.71 µM); in data set [5], 64 µg/mL (≈ 151 µM).

With `CC(C)COC(=O)[C@H](Cn1ccnc1)NC(=O)c1noc2c1CCc1ccccc1-2`, the minimal inhibitory concentration (MIC) in data set [6] came to 0.5 µg/mL (≈ 1.22 µM); in [7], 1 µg/mL (≈ 2.45 µM); in data set [1] it was 0.125 µg/mL (≈ 0.306 µM); in [2], 0.5 µg/mL (≈ 1.22 µM); in data set [3] it was 4 µg/mL (≈ 9.79 µM); in data set [4], 0.125 µg/mL (≈ 0.306 µM). The same compound came in with a minimal inhibitory concentration (MIC) in data set [5] of 8 µg/mL (≈ 19.6 µM).

Turning to `CC(C)OC(=O)[C@H](Cn1ccnc1)NC(=O)c1noc2c1ccc1ccccc12`, the MIC in data set [6] was determined as 1 µg/mL (≈ 2.55 µM); in data set [7], 2 µg/mL (≈ 5.1 µM); in data set [1], 0.125 µg/mL (≈ 0.319 µM); in [2], 0.25 µg/mL (≈ 0.637 µM); in [3], 0.25 µg/mL (≈ 0.637 µM); in data set [4], 0.125 µg/mL (≈ 0.319 µM). In [5], this compound came in with a minimum inhibitory concentration (MIC) of 4 µg/mL (≈ 10.2 µM). The remaining at 1 h, 2 µM in data set [8] was found to be 95.8%. In addition, the remaining at 2 h, 2 µM in data set [9] was found to be 91.7%.

In the case of `CC(C)COC(=O)[C@H](Cn1ccnc1)NC(=O)c1cc2ccccc2n1C`, the minimal inhibitory concentration (MIC) in [1] was 8 µg/mL (≈ 21.7 µM); in data set [2] it was 8 µg/mL (≈ 21.7 µM); in data set [3] it was 4 µg/mL (≈ 10.9 µM); in data set [4] it was 1 µg/mL (≈ 2.71 µM); in [5] it was 64 µg/mL (≈ 174 µM).

Broadly, the MIC is the lowest concentration that inhibits growth of the organism. A lower MIC goes with greater potency.
